Results published in the NIST ThermoML archive (doi:10.1021/je901043q).

Assay: xn = mol fraction of the nth substance listed
Conditions: 101 kPa, Liquid

CCCCn1cc[n+](C)c1.N#C[S-] [1-butyl-3-methylimidazolium thiocyanate] + CCCCCCCCCCO
Conditions | mass density [kg/m3] | viscosity [mPa·s]
298.15 K, x1 = 0.0747 | 843.95 | 13.07
298.15 K, x1 = 0.1621 | 864.67 | 15.5
298.15 K, x1 = 0.2537 | 886.57 | 18.67
298.15 K, x1 = 0.3512 | 910.03 | 22.48
298.15 K, x1 = 0.4924 | 944.3 | 28.36
298.15 K, x1 = 0.5922 | 968.81 | 32.87
298.15 K, x1 = 0.6659 | 987.05 | 36.09
298.15 K, x1 = 0.7576 | 1009.83 | 40
298.15 K, x1 = 0.8692 | 1037.62 | 45.01
298.15 K, x1 = 0.9587 | 1059.8 | 49.31
298.15 K, x1 = 1 | 1069.79 | 51.74
308.15 K, x1 = 0.0747 | 837.19 | 9.168
308.15 K, x1 = 0.1621 | 857.99 | 10.96
308.15 K, x1 = 0.2537 | 879.95 | 13.08
308.15 K, x1 = 0.3512 | 903.51 | 15.62
308.15 K, x1 = 0.4924 | 938.02 | 19.52
308.15 K, x1 = 0.5922 | 962.63 | 22.29
308.15 K, x1 = 0.6659 | 981.01 | 24.5
308.15 K, x1 = 0.7576 | 1003.83 | 27.12
308.15 K, x1 = 0.8692 | 1031.69 | 30.46
308.15 K, x1 = 0.9587 | 1053.86 | 33.3
308.15 K, x1 = 1 | 1063.89 | 34.87
318.15 K, x1 = 0.0747 | 830.4 | 6.582
318.15 K, x1 = 0.1621 | 851.35 | 7.964
318.15 K, x1 = 0.2537 | 873.42 | 9.541
318.15 K, x1 = 0.3512 | 897.08 | 11.39
318.15 K, x1 = 0.4924 | 931.78 | 14.06
318.15 K, x1 = 0.5922 | 956.5 | 16.04
318.15 K, x1 = 0.6659 | 974.94 | 17.59
318.15 K, x1 = 0.7576 | 997.87 | 19.4
318.15 K, x1 = 0.8692 | 1025.8 | 21.56
318.15 K, x1 = 0.9587 | 1048.02 | 23.3
318.15 K, x1 = 1 | 1058.02 | 24.19
328.15 K, x1 = 0.0747 | 823.59 | 4.88
328.15 K, x1 = 0.1621 | 844.7 | 5.959
328.15 K, x1 = 0.2537 | 866.89 | 7.162
328.15 K, x1 = 0.3512 | 890.79 | 8.553
328.15 K, x1 = 0.4924 | 925.54 | 10.62
328.15 K, x1 = 0.5922 | 950.4 | 11.98
328.15 K, x1 = 0.6659 | 968.92 | 12.98
328.15 K, x1 = 0.7576 | 991.96 | 14.04
328.15 K, x1 = 0.8692 | 1019.98 | 15.15
328.15 K, x1 = 0.9587 | 1042.2 | 16.1
328.15 K, x1 = 1 | 1052.19 | 16.7
338.15 K, x1 = 0.0747 | 816.7 | 3.741
338.15 K, x1 = 0.1621 | 838 | 4.567
338.15 K, x1 = 0.2537 | 860.36 | 5.526
338.15 K, x1 = 0.3512 | 884.37 | 6.586
338.15 K, x1 = 0.4924 | 919.35 | 8.183
338.15 K, x1 = 0.5922 | 944.32 | 9.243
338.15 K, x1 = 0.6659 | 962.91 | 9.998
338.15 K, x1 = 0.7576 | 986.05 | 10.76
338.15 K, x1 = 0.8692 | 1014.18 | 11.46
338.15 K, x1 = 0.9587 | 1036.43 | 12.18
338.15 K, x1 = 1 | 1046.43 | 12.73
348.15 K, x1 = 0.0747 | 809.76 | 2.909
348.15 K, x1 = 0.1621 | 831.23 | 3.578
348.15 K, x1 = 0.2537 | 853.79 | 4.411
348.15 K, x1 = 0.3512 | 877.97 | 5.195
348.15 K, x1 = 0.4924 | 913.13 | 6.455
348.15 K, x1 = 0.5922 | 938.26 | 7.278
348.15 K, x1 = 0.6659 | 956.95 | 7.875
348.15 K, x1 = 0.7576 | 980.21 | 8.487
348.15 K, x1 = 0.8692 | 1008.43 | 9.047
348.15 K, x1 = 0.9587 | 1030.7 | 9.624
348.15 K, x1 = 1 | 1040.7 | 9.98
